Laboratory results published in paper PMC3502156, “Anti-plasmodial action of de novo-designed, cationic, lysine-branched, amphipathic, helical peptides” (Malaria Journal, 2012).
Where two headings read alike, the source gives them in different places. Starred links: 1 amine or outer side, 2 acyl side, 3 side chain; linkers in the order of their positions; H or OH if unused. Positions of bridges follow the written chain, without caps; N, C: chain ends. Non-standard residues stand in square brackets, D forms with d. Residues, ends and D or L forms follow the SMILES beside them. Chains are numbered I, II in the order given. X1 = O=C(/C(=C/c1ccccc1)N[*:1])[*:2]; X2 = O=C(C(=Cc1ccccc1)N[*:1])[*:2]

Legend:
[1] = test system: P. falciparum Dd2 (CQ-resistant); assay: microbe, parasite or virus in culture; format: cell-based, Plasmodium falciparum; settings: for Resistance index IC50 Dd2/ IC50 3D7: IC50 CQ resistant strain/ IC50 CQ sensitive strain
Procedure: (§1) Chloroquine-sensitive (3D7) and CQ-resistant (Dd2 and INDO) strains of P. falciparum were maintained in continuous culture according to the method of Trager and Jensen with minor modifications. Cultures were maintained in fresh group O^+ve human erythrocytes suspended at 4% haematocrit in complete medium {16.2 g/L RPMI 1640 containing 25 mM HEPES, 11.11 mM glucose (Gibco), 0.2% sodium bicarbonate (Sigma), 0.5% Albumax I (Gibco), 45 μg/litre hypoxanthine (Sigma) and 50 μg/litre gentamicin (Gibco)} and incubated at 37°C under a gas mixture 5% O2, 5% CO2, and 90% N2. Every day, the spent medium was replaced by fresh complete medium to propagate the culture. […] Parasitaemia was monitored by microscopic examination of Giemsa-stained blood smears. Synchronized ring stage parasite was obtained by 5% sorbitol treatment. Trophozoites and schizont-stage parasites were enriched by using Percoll gradient.
(§2) Stock solutions of peptides and CQ were prepared in water (milli-Q grade) while artemisinin stock solution was in dimethyl sulphoxide (DMSO). All stocks were then diluted with culture medium to achieve the required drug concentrations. The concentration of peptide solution in water was based on A280 [ϵ (M^-1 cm^-1) ΔF (didehydrophenylalanine) 19,000, W (Tryptophan) 5,000)]. Thus ϵ280 were 62,000, 124,000, 124,000 and 248,000 for ΔFm, (ΔFm)2, ΔFd and ΔFq respectively. The concentration of FITC-peptides was based on A495 [ϵ(M^-1 cm^-1) FITC 77,000 for (ΔFm)2 with one FITC and 154,000 for ΔFd with two FITC per molecule]. Drugs and peptides solutions were placed in 96-well flat bottom tissue culture grade plates (Corning).
(§3) For drug screening, SYBR green I based fluorescence assay was used as described previously by Smilkstein et al.[30]. Sorbitol synchronized ring stage parasites (haematocrit: 2%, parasitaemia: 1%, 100 μl) under normal culture conditions were incubated in the absence or presence of increasing concentrations of peptides in water. CQ and artemisinin were used as positive controls. […] After 48 hr of incubation 100 μl of SYBR Green I buffer [0.2 μl of 10,000 X SYBR Green I (Invitrogen) per ml of lysis buffer {Tris (20 mM; pH 7.5), EDTA (5 mM), saponin (0.008%; wt/vol), and Triton X-100 (0.08%; vol/vol)}] was added to each well, mixed twice gently with multi-channel pipette and incubated in dark at 37 °C for 1 h. Fluorescence was measured with a Victor fluorescence multi-well plate reader (Perkin Elmer) with excitation and emission wavelength centred at 485 and 530 nm, respectively. Fluorescence counts for CQ (0.1 μM for 3D7, 1 μM for INDO) were subtracted from counts in each well. The fluorescence counts were plotted against the drug concentration and IC50 (the 50% inhibitory concentration) was determined by analysis of dose–response curves. Results of the above mentioned fluorescence-based assay were validated microscopically by examination of Giemsa-stained smears of peptide-treated parasite cultures. Statistical significance of relative potencies of peptides was determined by student’s T test.

[2] = test system: P. falciparum 3D7 (chloroquine-sensitive); assay: microbe, parasite or virus in culture; format: cell-based, Plasmodium falciparum
[3] = test system: P. falciparum 3D7 (chloroquine-sensitive); assay: microbe, parasite or virus in culture; format: cell-based, Plasmodium falciparum; remark: listed apart in the source
Procedure: as §1, §2, §3

[4] = test system: uninfected erythrocytes (URBC); assay: Haemolysis assay, uninfected red cells; format: cell-based, human
Procedure: (§4) Selectivity of haemolysis by peptides for infected erythrocytes (PRBC) vs uninfected erythrocytes (URBC) was examined by incubating the test molecules with URBCs and PRBCs respectively in phosphate-buffered saline (PBS). Briefly, fresh RBCs were spin washed (1600 RPM; 5 min) three times in PBS and re-suspended in PBS at 2% haematocrit. A 100 μl suspension was added to 96-well plate containing the peptides at different concentrations. […] After incubation at 37°C for 3 hr, the samples were centrifuged and supernatant was used to determine the haemolytic activity measured in terms of haemoglobin release as monitored by […]. Triton-treated control samples were diluted 10-fold before reading absorbance. […] Percent haemolysis has been expressed with reference to 100% haemolysis value assigned to positive control (triton X 100 treated RBCs). To study haemolytic susceptibility of parasitized cells, URBCs were replaced with varying percentages (10% and 20%) of mixed stage parasitized cells. […] Haemolysis of parasitized erythrocytes was also monitored microscopically by examining the Giemsa-stained smears. Parasitaemia of ΔFd treated and untreated cultures were microscopically counted for ring, trophozoite and schizont stages respectively. Susceptibility of different stages was compared with corresponding untreated control cultures.

[5] = test system: infected erythrocytes (PRBC); assay: Haemolysis assay, parasitized red cells; format: cell-based, Plasmodium falciparum; settings: up to 40 μM, 3 hr, A415
Procedure: as §4

[6] = test system: Plasmodium-infected RBCs (PRBC); assay: Fluorescence microscopy of FITC-peptide localization; format: cell-based, Plasmodium falciparum; settings: 2-3 μM, 30 min, 37°C, complete medium
Procedure: For studying peptide localization, P. falciparum cultures were individually incubated with FITC-ΔFd (2 μM), FITC-(ΔFm)2 (2 μM) or FITC-Insulin (3 μM) a) alone and b) together with DAPI in complete medium at 37°C for 30 min and the cells were spin washed (1,600 RPM, 5 min) twice with 1 X PBS to reduce background fluorescence. The cells were smeared on a glass slide, and fluorescence was visualized by using the respective filter settings for FITC and DAPI.
For studying the selectivity and route of transport of ΔFd into the red cell-resident malaria parasite, URBC and PRBC were incubated with FITC-ΔFd (4 μM) in parallel sets at 4°C vs at room temperature (25°C) for specified times and spin washed (1,600 RPM, 2 min) with complete medium (3 X 200 μl). The cells were smeared on a glass slide and both bright field images and fluorescence images (using FITC filter) were captured at 100 X magnification using Nikon eclipse fluorescence microscope. The software Adobe Photoshop was used to overlay the fluorescence image on the bright field image.

[7] = ring stage synchronized, haematocrit 2%, parasitaemia 1%, 48 hr, SYBR Green I fluorescence, ± SD of three independent observations, read-out: IC50 P. falciparum 3D7
[8] = 2% haematocrit in PBS, 37°C, 3 hr, haemoglobin release A415, 100% = 0.4% Triton X-100, ± SD of three independent observations
[9] = 3D7 (chloroquine-sensitive, 48 h)

For CCN(CC)CCCC(C)Nc1ccnc2cc(Cl)ccc12 (stereo not drawn) [Chloroquine, reference compound], the “Resistance index IC50 Dd2/ IC50 3D7” value [1] was 4, the IC50 ([1]; Plasmodium falciparum, DD2, 48 h, read-out: IC50 P. falciparum Dd2) was 160 nM and the IC50 ([2]; Plasmodium falciparum, 3D7, 48 h, read-out: IC50 P. falciparum 3D7) was 40 nM.

“Insulin: bovine insulin (Sigma), control peptide [reference compound]” was tested, and the IC50 [3, 7] was > 40000 nM, the “HC50 URBC” value [4, 8] was > 40 µM and the “haemolysis of infected red cells by control peptides” value [5] was “not to show any haemolysis”.

In the case of CC(=O)NCC(=O)N[C@@H](Cc1ccccc1)C(=O)N[C@@H](CCCNC(=N)N)C(=O)N[C@@H](CCCCN)C(=O)N[C@@H](Cc1ccccc1)C(=O)N[C@@H](Cc1c[nH]cn1)C(=O)N[C@@H](CCCCN)C(=O)N[C@@H](Cc1ccccc1)C(=O)N[C@@H](Cc1c[nH]c2ccccc12)C(=O)N[C@@H](C)C(=O)NCCCC[C@H](NC(=O)[C@H](C)NC(=O)[C@H](Cc1c[nH]c2ccccc12)NC(=O)[C@H](Cc1ccccc1)NC(=O)[C@H](CCCCN)NC(=O)[C@H](Cc1c[nH]cn1)NC(=O)[C@H](Cc1ccccc1)NC(=O)[C@H](CCCCN)NC(=O)[C@H](CCCNC(=N)N)NC(=O)[C@H](Cc1ccccc1)NC(=O)CNC(C)=O)C(N)=O [Fd] (I: Ac-GFRKFHKFWAK-NH2 / II: Ac-GFRKFHKFWA; amide I:11-II:C; N-terminus and C-terminus assumed), the IC50 [3, 9] is reported as 1500 ± 80 nM, the “HC50 URBC” value ([4]; 3 h) is reported as > 50 µM and the “Hemolytic Selectivity index (HC50 URBC/ IC50 Pf 3D7)” value (“Hemolytic Selectivity index” for short) ([4]; 3 h) is reported as > 33.

For “I: Ac-G[X1]RK[X1]HK[X1]WAKK-NH2 / II: Ac-G[X1]RK[X1]HK[X1]WAK / III: Ac-G[X1]RK[X1]HK[X1]WA / IV: Ac-G[X1]RK[X1]HK[X1]WA (amide I:11-IV:C, I:12-II:C, II:11-III:C; N-terminus and C-terminus assumed) [ΔFq]”, the IC50 [3, 9] was 250 ± 20 nM, the “HC50 URBC” value ([4]; 3 h) was 2.5 ± 0.13 µM and the “Hemolytic Selectivity index” value ([4]; 3 h) was 10.

For CC(=O)NCC(=O)NC(=Cc1ccccc1)C(=O)N[C@@H](CCCNC(=N)N)C(=O)N[C@@H](CCCCN)C(=O)NC(=Cc1ccccc1)C(=O)N[C@@H](Cc1c[nH]cn1)C(=O)N[C@@H](CCCCN)C(=O)NC(=Cc1ccccc1)C(=O)N[C@@H](Cc1c[nH]c2ccccc12)C(=O)N[C@@H](C)C(=O)N[C@@H](C)C(=O)NCC(=O)NC(=Cc1ccccc1)C(=O)N[C@@H](CCCNC(=N)N)C(=O)N[C@@H](CCCCN)C(=O)NC(=Cc1ccccc1)C(=O)N[C@@H](Cc1c[nH]cn1)C(=O)N[C@@H](CCCCN)C(=O)NC(=Cc1ccccc1)C(=O)N[C@@H](Cc1c[nH]c2ccccc12)C(=O)N[C@@H](C)C(N)=O [(ΔFm)2] (Ac-G[X2]RK[X2]HK[X2]WAAG[X2]RK[X2]HK[X2]WA-NH2), the IC50 [3, 9] was 2400 ± 150 nM, the IC50 ([1]; Dd2 (CQ-resistant, 48 h)) was 2500 ± 130 nM and the “Resistance index IC50 Dd2/ IC50 3D7” value [1] was 1.04. For the same compound, the “HC50 URBC” value ([4]; 3 h) was > 50 µM, the “Hemolytic Selectivity index” value ([4]; 3 h) was > 20 and the “increment in potency at 96 hr (two cycles) vs 48 hr (one cycle)” value ([2]; P. falciparum 3D7, SYBR Green assay) was 1.5 fold.

With CC(=O)NCC(=O)N[C@@H](Cc1ccccc1)C(=O)N[C@@H](CCCNC(=N)N)C(=O)N[C@@H](CCCCN)C(=O)N[C@@H](Cc1ccccc1)C(=O)N[C@@H](Cc1c[nH]cn1)C(=O)N[C@@H](CCCCN)C(=O)N[C@@H](Cc1ccccc1)C(=O)N[C@@H](Cc1c[nH]c2ccccc12)C(=O)N[C@@H](C)C(N)=O [Fm] (Ac-GFRKFHKFWA-NH2) the IC50 [3, 9] was > 100000 nM, the IC50 ([1]; Dd2 (CQ-resistant, 48 h)) was > 100000 nM and the “HC50 URBC” value ([4]; 3 h) was >100 µM.

For “FITC-insulin: FITC-Insulin (Sigma), control for uptake”, the “uptake of FITC-labelled peptide by parasitized cells” value [6] was “no accumulation”.

For CC(C)C[C@H](NC(=O)[C@H](CCC(N)=O)NC(=O)[C@@H]1CCCN1C(=O)[C@H](CC(C)C)NC(=O)[C@H](CC(=O)O)NC(=O)[C@@H](NC(=O)[C@@H](NC(=O)[C@H](Cc1c[nH]cn1)NC(=O)[C@@H]1CCCN1C(=O)[C@H](CC(C)C)NC(=O)[C@@H]1CCCN1C(=O)[C@@H]1CCCN1C(=O)[C@H](C)NC(=O)[C@H](CO)NC(=O)[C@@H]1CCCN1C(=O)[C@H](CCCNC(=N)N)NC(=O)[C@@H](NC(=O)[C@H](C)NC(=O)CNC(=O)[C@H](CC(C)C)NC(=O)[C@@H]1CCCN1C(=O)[C@H](C)NC(=O)[C@H](CO)NC(=O)[C@H](Cc1c[nH]cn1)NC(=O)[C@H](CC(=O)O)NC(=O)[C@@H]1CCCN1C(=O)[C@@H]1CCCN1C(=O)[C@@H](N)CC(N)=O)[C@@H](C)O)C(C)C)C(C)C)C(=O)NCC(=O)N1CCC[C@H]1C(=O)O [E30, reference compound] (H-NPPDHSAPLGATRPSAPPLPHVVDLPQLGP-OH), the IC50 [3, 7] was > 40000 nM, the “HC50 URBC” value [4, 8] was > 40 µM and the “haemolysis of infected red cells by control peptides” value [5] was “not to show any haemolysis”.

With C[C@H](NC(=O)[C@H](C)NC(=O)[C@H](CCCCN)NC(=O)[C@H](Cc1c[nH]cn1)NC(=O)[C@@H]1CCCN1C(=O)[C@H](CCC(=O)O)NC(=O)[C@@H](N)CCC(=O)O)C(=O)N[C@@H](CO)C(=O)N[C@@H](C)C(=O)N[C@@H](CCC(=O)O)C(=O)NCC(=O)N[C@@H](CCCCN)C(=O)N[C@@H](CCCCN)C(=O)O [Prochitinase, reference compound] (H-EEPHKAASAEGKK-OH) the IC50 [3, 9] was > 40000 nM and the “HC50 URBC” value ([4]; 3 h) was > 40 µM.

With CC(=O)NCC(=O)NC(=Cc1ccccc1)C(=O)N[C@@H](CCCNC(=N)N)C(=O)N[C@@H](CCCCN)C(=O)NC(=Cc1ccccc1)C(=O)N[C@@H](Cc1c[nH]cn1)C(=O)N[C@@H](CCCCN)C(=O)NC(=Cc1ccccc1)C(=O)N[C@@H](Cc1c[nH]c2ccccc12)C(=O)N[C@@H](C)C(N)=O [ΔFm] (Ac-G[X2]RK[X2]HK[X2]WA-NH2) the IC50 [3, 9] was > 100000 nM, the IC50 ([1]; Dd2 (CQ-resistant, 48 h)) was > 100000 nM and the “HC50 URBC” value ([4]; 3 h) was >100 µM.
